Activity calls are given as the source filed them. The rule behind the calls is not given here.
Biological target: T1, Acetolactate synthase (Nicotiana tabacum) (UniProt C0L093)
T1 sequence (whole entry): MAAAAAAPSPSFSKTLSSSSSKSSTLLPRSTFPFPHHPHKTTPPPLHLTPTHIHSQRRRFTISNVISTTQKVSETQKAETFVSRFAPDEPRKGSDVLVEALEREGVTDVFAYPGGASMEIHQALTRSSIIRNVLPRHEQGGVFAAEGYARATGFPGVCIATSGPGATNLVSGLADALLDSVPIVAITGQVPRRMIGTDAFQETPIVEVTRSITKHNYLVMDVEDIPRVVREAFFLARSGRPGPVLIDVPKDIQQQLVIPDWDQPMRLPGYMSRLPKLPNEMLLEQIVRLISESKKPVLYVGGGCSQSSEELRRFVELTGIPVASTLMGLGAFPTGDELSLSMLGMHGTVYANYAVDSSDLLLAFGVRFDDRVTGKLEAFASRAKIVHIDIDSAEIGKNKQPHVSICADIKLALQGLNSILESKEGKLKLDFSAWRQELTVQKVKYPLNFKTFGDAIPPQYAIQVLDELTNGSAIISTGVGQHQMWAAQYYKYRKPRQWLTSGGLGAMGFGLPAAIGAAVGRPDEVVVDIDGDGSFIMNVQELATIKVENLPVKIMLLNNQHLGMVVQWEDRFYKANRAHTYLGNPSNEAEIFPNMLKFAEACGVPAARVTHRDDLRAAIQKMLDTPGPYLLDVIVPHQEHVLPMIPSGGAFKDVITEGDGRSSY
Test: Inhibition of wild type Nicotiana tabacum (tobacco) GST-tagged acetolactate synthase expressed in Escherichia coli at 1 mM by modified Westerfeld method

inhibition	SMILES
inactive	Cc1cc(C)n2nc(S(=O)(=O)Nc3cccc4ncccc34)nc2n1
inactive	Cc1cc(C)n2nc(S(=O)(=O)Nc3cccc4cnccc34)nc2n1
inactive	Cc1cc(C)n2nc(S(=O)(=O)Nc3nccc4ccccc34)nc2n1
inactive	Cc1ccn2nc(S(=O)(=O)Nc3cccc4cnccc34)nc2n1
inactive	Cc1ccn2nc(S(=O)(=O)Nc3cccc4ncccc34)nc2n1
inactive	Cc1ccn2nc(S(=O)(=O)Nc3nccc4ccccc34)nc2n1

Biological target: Acetolactate synthase (Nicotiana tabacum, UniProt C0L093)
Test: Inhibition of wild type Nicotiana tabacum (tobacco) S4-Hra GST-tagged acetolactate synthase mutant expressed in Escherichia coli by modified Westerfeld method

SMILES	IC50
Cc1cc(C)n2nc(S(=O)(=O)Nc3c(F)ccc4cccnc34)nc2n1	14.7 µM
Cc1ccn2nc(S(=O)(=O)Nc3c(F)cccc3F)nc2n1 [FLUMETSULAM]	0.939 µM
Cc1ccn2nc(S(=O)(=O)Nc3c(F)ccc4cccnc34)nc2n1	16.5 µM

Biological target: T2, Acetolactate synthase (Nicotiana tabacum, UniProt C0L093)
T2 sequence (C0L093 whole entry): T1 sequence (whole entry)
Test: Inhibition of wild type Nicotiana tabacum (tobacco) GST-tagged acetolactate synthase expressed in Escherichia coli by modified Westerfeld method

SMILES	IC50
Cc1ccn2nc(S(=O)(=O)Nc3c(C#N)ccc4cccnc34)nc2n1	64 nM
Cc1cc(C)n2nc(S(=O)(=O)Nc3cccc4cccnc34)nc2n1	32.3 nM
Cc1cc(C)n2nc(S(=O)(=O)Nc3c(Cl)ccc4cccnc34)nc2n1	9.4 nM
Cc1cc(C)n2nc(S(=O)(=O)Nc3c(F)ccc4cccnc34)nc2n1	7.7 nM
Cc1ccn2nc(S(=O)(=O)Nc3c(F)cccc3F)nc2n1 [FLUMETSULAM]	31.6 nM
Cc1cc(C)n2nc(S(=O)(=O)Nc3c(Br)ccc4cccnc34)nc2n1	8.7 nM
Cc1ccn2nc(S(=O)(=O)Nc3c(Cl)ccc4cccnc34)nc2n1	37.2 nM
Cc1ccn2nc(S(=O)(=O)Nc3c(F)ccc4cccnc34)nc2n1	17.1 nM
Cc1ccn2nc(S(=O)(=O)Nc3c(Br)ccc4cccnc34)nc2n1	19.2 nM

— ChEMBL document CHEMBL3045053, “Synthesis of the quinoline-linked triazolopyrimidine analogues and their interactions with the recombinant tobacco acetolactate synthase” (Biochem Biophys Res Commun, 1999)
